Values after ≈ are worked out from the molar mass of the structure shown. Where no end group is shown, it is not given here.
Tests used:
S. aureus Newman [1] = test: qRT-PCR of gene induction in treated wild-type cells; assay type: cell-based, Staphylococcus aureus; conditions: 10 min, 5 × MIC (temporin-L-NH2 subinhibitory 2 μg/ml, pentaglycine 20 μg/ml), treated/untreated, mean of three experiments (SD)
S. aureus RN4220 = conditions: Mueller-Hinton broth, 16-24 h, 37°C, two-fold dilution series, performed twice
S. aureus Newman [2] = conditions: S. aureus Newman; Mueller-Hinton broth, 16-24 h, 37°C, two-fold dilution series, performed twice
ΔvraSR/S. aureus Newman = conditions: for MIC: ΔvraSR/S. aureus Newman, 16-24 h, 37°C, two-fold dilution series, performed twice; for Effect of the ΔvraSR mutation on sensitivity: MIC, 100%, 50% (LL-37, nisin, Pep5) or 25% (hBD3) Mueller-Hinton broth
ΔvraDE/S. aureus Newman = conditions: ΔvraDE/S. aureus Newman; Mueller-Hinton broth, 16-24 h, 37°C, two-fold dilution series, performed twice
ΔvraSR/ RN4220 = conditions: Mueller-Hinton broth, 16-24 h, 37°C, two-fold dilution series, performed twice
[3] = test system: wild-type S. aureus Newman; assay type: cell-based, Staphylococcus aureus
ΔvraDE/ RN4220 = conditions: Mueller-Hinton broth, 16-24 h, 37°C, two-fold dilution series, performed twice

| Molecule | Fold induction SA0205 (S. aureus Newman [1]) | Fold induction groEL (S. aureus Newman [1]) | Fold induction prsA (S. aureus Newman [1]) | Fold induction vraD (S. aureus Newman [1]) | MIC (S. aureus RN4220) | MIC (S. aureus Newman [2]) | Difference in MIC (increased sensitivity), ΔvraSR mutant versus wild-type (ΔvraSR/S. aureus Newman; Mueller-Hinton broth) | MIC (ΔvraSR/S. aureus Newman; Mueller-Hinton broth) | MIC (ΔvraDE/S. aureus Newman) | MIC (ΔvraSR/ RN4220) | Growth of wild-type strain in the presence of the antimicrobial [3] | MIC (ΔvraDE/ RN4220) | Effect of the ΔvraSR mutation on sensitivity (ΔvraSR/S. aureus Newman) |
| --- | --- | --- | --- | --- | --- | --- | --- | --- | --- | --- | --- | --- | --- |
| Teicoplanin | 35.7 (6.9) fold | 3.0 (0.3) fold | 32.1 (4.1) fold | 2.5 (0.3) fold | 0.25 µg/mL | 0.5 µg/mL | 4 fold | 0.125 µg/mL | 0.5 µg/mL | 0.06 µg/mL |  |  |  |
| O=C(O)CN(CCOCCOCCN(CC(=O)O)CC(=O)O)CC(=O)O [EGTA] |  |  |  |  |  |  |  |  |  |  | grew significantly |  |  |
| CO/N=C(\C(=O)N[C@@H]1C(=O)N2C(C(=O)O)=C(COC(C)=O)CS[C@H]12)c1csc(N)n1 [cefotaxime] |  |  |  |  |  |  |  |  |  |  | grew significantly |  |  |
| FVQWFSKFLGRIL-NH2 [Temporin L-NH2] |  |  |  |  | 3 µg/mL | 6 µg/mL |  | 6 µg/mL | 6 µg/mL | 3 µg/mL |  | 3 µg/mL |  |
| Nisin: lantibiotic (ITSISLCTPGCKTGALMGCNMKTATCHCSIHVSK; also: lantibiotic, modified residues and thioether rings not given here; UniProt P13068 24-57, looked up) |  |  |  |  | 6.25 µg/mL | 6.25 µg/mL |  |  |  |  |  |  | did not affect the sensitivity |
| KNLRRIIRKIIHIIKKYG-NH2 [Ovispirin-1-NH2] |  |  |  |  | 20 µg/mL | 20 µg/mL |  | 10 µg/mL | 20 µg/mL | 10 µg/mL |  | 20 µg/mL |  |
| CCCCCCCCCC(=O)N[C@@H](Cc1c[nH]c2ccccc12)C(=O)N[C@H](CC(N)=O)C(=O)N[C@@H](CC(=O)O)C(=O)N[C@@H]1C(=O)NCC(=O)N[C@@H](CCCN)C(=O)N[C@@H](CC(=O)O)C(=O)N[C@H](C)C(=O)N[C@@H](CC(=O)O)C(=O)NCC(=O)N[C@H](CO)C(=O)N[C@@H]([C@H](C)CC(=O)O)C(=O)N[C@@H](CC(=O)c2ccccc2N)C(=O)O[C@@H]1C [Daptomycin] |  |  |  |  | 2.5 µg/mL (≈ 1.54 µM) | 2.5 µg/mL (≈ 1.54 µM) |  | 2.5 µg/mL (≈ 1.54 µM) | 2.5 µg/mL (≈ 1.54 µM) | 2.5 µg/mL (≈ 1.54 µM) |  | 2.5 µg/mL (≈ 1.54 µM) | did not affect the sensitivity |
